Reference: patent US20100298141A1, “SUBSTITUTED PYRIDINE N-OXIDE HERBICIDES” (E. I. DU PONT DE NEMOURS AND COMPANY, priority 2007, published 2010)

Key:
yellow nutsedge = assay: Test C pre-/postemergence test; assay type: in vivo, Cyperus esculentus
Summary of the method: (§1)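 Seeds were planted and treated preemergence with test chemical in a non-phytotoxic solvent mixture containing surfactant. Postemergence applications of the same formulation went onto plants 2 to 18 cm tall (1- to 4-leaf stage). A dash marks no test result.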

green foxtail = assay: Test C pre-/postemergence test; assay type: in vivo, Setaria viridis
Summary of the method: as §1

velvetleaf = assay: Test A pre-/postemergence greenhouse test; assay type: in vivo, Abutilon theophrasti; details: for Velvetleaf plant response rating: 0 to 100 scale
Summary of the method: (§2)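 Greenhouse herbicide screen, pre- and postemergence in parallel. Soil: loam plus sand. Formulation: non-phytotoxic solvent mix with surfactant. Postemergence stage: one to two leaves, 2–10 cm height. Evaluation: visual injury, compared with untreated controls, about 10 days after treatment.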

soybean = assay: Test C pre-/postemergence test; assay type: in vivo, Glycine max
Summary of the method: as §1

corn [1] = assay: Test A pre-/postemergence greenhouse test; assay type: in vivo, Zea mays; details: for Corn plant response rating: 0 to 100 scale
Summary of the method: as §2

Italian ryegrass = assay: Test C pre-/postemergence test; assay type: in vivo, Lolium multiflorum
Summary of the method: as §1

crabgrass [2] = assay: Test C pre-/postemergence test; assay type: in vivo, Digitaria sanguinalis
Summary of the method: as §1

Goosegrass = assay: Test C pre-/postemergence test; assay type: in vivo, Eleusin indica
Summary of the method: as §1

umbrella sedge = assay: Test C flooded paddy test; assay type: in vivo, Cyperus difformis; details: Flood
Summary of the method: (§3)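 Visual injury ratings against untreated controls, taken 13 to 15 days after compound was added to paddy water standing 3 cm above the soil.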

bermudagrass = assay: Test C pre-/postemergence test; assay type: in vivo, Cynodon dactylon
Summary of the method: as §1

barnyardgrass [3] = assay: Test C flooded paddy test; assay type: in vivo, Echinochloa crus-galli; details: Flood
Summary of the method: as §3

crabgrass [4] = assay: Test A pre-/postemergence greenhouse test; assay type: in vivo, Digitaria sanguinalis; details: for Crabgrass, Large plant response rating: 0 to 100 scale
Summary of the method: as §2

duck salad = assay: Test C flooded paddy test; assay type: in vivo, Heteranthera limosa; details: Flood
Summary of the method: as §3

johnsongrass = assay: Test C pre-/postemergence test; assay type: in vivo, Sorghum halepense
Summary of the method: as §1

pigweed = assay: Test C pre-/postemergence test; assay type: in vivo, Amaranthus retroflexus
Summary of the method: as §1

corn [5] = assay: Test C pre-/postemergence test; assay type: in vivo, Zea mays
Summary of the method: as §1

barnyardgrass [6] = assay: Test A pre-/postemergence greenhouse test; assay type: in vivo, Echinochloa crus-galli; details: for Barnyardgrass plant response rating: 0 to 100 scale
Summary of the method: as §2

[7] = 31 g ai/ha, Preemergence, scale 0 to 100
[8] = 62 g ai/ha, preemergence, scale 0 (no effect) to 100 (complete control)
[9] = preemergence, 125 g ai/ha, scale 0 (no effect) to 100 (complete control)
[10] = Postemergence, 125 g ai/ha, 0 is no effect, 100 is complete control
[11] = Postemergence, 500 g ai/ha, 0 is no effect, 100 is complete control
[12] = Preemergence, 125 g ai/ha, 0 no effect, 100 complete control
[13] = Preemergence, 500 g ai/ha, 0 to 100 scale where 0 is no effect and 100 is complete control
[14] = 31 g ai/ha, scale 0 to 100 (0 no effect, 100 complete control)
[15] = 62 g ai/ha, scale 0 to 100, 0 no effect, 100 complete control, 13 to 15 days
[16] = 125 g ai/ha, scale 0 to 100, 0 no effect, 100 complete control, 13 to 15 days
[17] = 250 g ai/ha, scale 0 to 100 (0 no effect, 100 complete control)

Cn1nc(C(F)(F)F)c(C[S+]([O-])c2ccc(Br)c[n+]2[O-])c1OC(F)F (racemic) [Compound 16]
Nutsedge, Yellow plant response rating (yellow nutsedge; [7]): 60 | Nutsedge, Yellow plant response rating (yellow nutsedge; [8]): 80 | Plant response rating (0 to 100), Nutsedge, Yellow (yellow nutsedge; Preemergence, 250 g ai/ha): 100 | Nutsedge, Yellow plant response rating (yellow nutsedge; [9]): 85 | Foxtail, Green plant response rating (green foxtail; [7]): 70 | Foxtail, Green plant response rating (green foxtail; [8]): 70 | Plant response rating (0 to 100), Foxtail, Green (green foxtail; Preemergence, 250 g ai/ha): 100 | Foxtail, Green plant response rating (green foxtail; [9]): 70 | Velvetleaf plant response rating (velvetleaf; [10]): 50 | Velvetleaf plant response rating (velvetleaf; [11]): 90 | Velvetleaf plant response rating (velvetleaf; [12]): 80 | Plant response rating, Velvetleaf (velvetleaf; [13]): 100 | Soybean plant response rating (soybean; [7]): 0 | Soybean plant response rating (soybean; [8]): 30 | Plant response rating (0 to 100), Soybean (soybean; Preemergence, 250 g ai/ha): 80 | Soybean plant response rating (soybean; [9]): 60 | Corn plant response rating (corn [1]; [10]): 50 | Corn plant response rating (corn [1]; [11]): 60 | Corn plant response rating (corn [1]; [12]): 0 | Plant response rating, Corn (corn [1]; [13]): 60 | Ryegrass, Italian plant response rating (Italian ryegrass; [7]): 30 | Ryegrass, Italian plant response rating (Italian ryegrass; [8]): 50 | Plant response rating (0 to 100), Ryegrass, Italian (Italian ryegrass; Preemergence, 250 g ai/ha): 100 | Ryegrass, Italian plant response rating (Italian ryegrass; [9]): 55 | Crabgrass, Large plant response rating (crabgrass [2]; [7]): 80 | Crabgrass, Large plant response rating (crabgrass [2]; [8]): 98 | Plant response rating (0 to 100), Crabgrass, Large (crabgrass [2]; Preemergence, 250 g ai/ha): 100 | Crabgrass, Large plant response rating (crabgrass [2]; [9]): 100 | Goosegrass plant response rating (Goosegrass; [7]): 98 | Goosegrass plant response rating (Goosegrass; [8]): 100 | Plant response rating (0 to 100), Goosegrass (Goosegrass; Preemergence, 250 g ai/ha): 100 | Goosegrass plant response rating (Goosegrass; [9]): 100 | Plant response rating, Sedge, Umbrella (umbrella sedge; [14]): 0 | Plant response rating, Sedge, Umbrella (umbrella sedge; [15]): 0 | Plant response rating, Sedge, Umbrella (umbrella sedge; [16]): 0 | Plant response rating, Sedge, Umbrella (umbrella sedge; 250 g ai/ha, scale 0 to 100, 0 no effect, 100 complete control, 13 to 15 days): 0 | Bermudagrass plant response rating (bermudagrass; [7]): 80 | Bermudagrass plant response rating (bermudagrass; [8]): 98 | Plant response rating (0 to 100), Bermudagrass (bermudagrass; Preemergence, 250 g ai/ha): 100 | Bermudagrass plant response rating (bermudagrass; [9]): 100 | Plant response rating, Barnyardgrass (barnyardgrass [3]; [14]): 0 | Plant response rating, Barnyardgrass (barnyardgrass [3]; [15]): 0 | Plant response rating, Barnyardgrass (barnyardgrass [3]; [16]): 0 | Plant response rating, Barnyardgrass (barnyardgrass [3]; [17]): 0 | Crabgrass, Large plant response rating (crabgrass [4]; [10]): 70 | Crabgrass, Large plant response rating (crabgrass [4]; [11]): 90 | Crabgrass, Large plant response rating (crabgrass [4]; [12]): 80 | Plant response rating, Crabgrass, Large (crabgrass [4]; [13]): 100 | Plant response rating, Ducksalad (duck salad; [14]): 0 | Plant response rating, Ducksalad (duck salad; [15]): 0 | Plant response rating, Ducksalad (duck salad; [16]): 0 | Plant response rating, Ducksalad (duck salad; [17]): 0 | Johnsongrass plant response rating (johnsongrass; [7]): 100 | Johnsongrass plant response rating (johnsongrass; [8]): 100 | Plant response rating (0 to 100), Johnsongrass (johnsongrass; Preemergence, 250 g ai/ha): 100 | Johnsongrass plant response rating (johnsongrass; [9]): 100 | Pigweed plant response rating (pigweed; [7]): 100 | Pigweed plant response rating (pigweed; [8]): 100 | Plant response rating (0 to 100), Pigweed (pigweed; Preemergence, 250 g ai/ha): 100 | Pigweed plant response rating (pigweed; [9]): 100 | Corn plant response rating (corn [5]; [7]): 40 | Corn plant response rating (corn [5]; [8]): 95 | Plant response rating (0 to 100), Corn (corn [5]; Preemergence, 250 g ai/ha): 100 | Corn plant response rating (corn [5]; [9]): 98 | Barnyardgrass plant response rating (barnyardgrass [6]; [10]): 90 | Barnyardgrass plant response rating (barnyardgrass [6]; [11]): 100 | Barnyardgrass plant response rating (barnyardgrass [6]; [12]): 90 | Plant response rating, Barnyardgrass (barnyardgrass [6]; [13]): 100
